Some test systems named below: SK-MEL-5 melanoma; HT29 colon; HL-60(TB) leukemia; OVCAR-8 ovarian; NCI/ADR-RES ovarian; OVCAR-5 ovarian; M14 melanoma; SK-MEL-28 melanoma; RXF 393 renal; MALME-3M melanoma.
Holding throughout (experiment): NCI anticancer screen, dose series, 48 h

Molecules are shown by their SMILES.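 Growth conditions: 96-well plates. Treatment: test compound, 48 hours, 5 concentrations. Analysis: linear interpolation between bracketing concentrations; unreached endpoints set to highest concentration. GI50 is the concentration that inhibits growth by half. TGI: total growth inhibition.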 Bounds are passed on as bounds.

Take `Cc1cc(OCc2nnc3n2S(=O)(=O)c2ccccc2N3C)ccc1Cl`: the TGI in the experiment with SK-MEL-5 melanoma is more than 100 µM; in the experiment on HT29 colon, more than 100 µM; with HL-60(TB) leukemia, 55.1 µM; in the experiment with OVCAR-8 ovarian, more than 100 µM; in the experiment with NCI/ADR-RES ovarian it was more than 100 µM; in the experiment on OVCAR-5 ovarian, more than 100 µM. For the same compound, the results for the TGI in the experiment with M14 melanoma, in the experiment on SK-MEL-28 melanoma and in the experiment on RXF 393 renal were more than 100 µM, more than 100 µM and 60.1 µM, respectively.

As for `O=C1c2c(c(=O)[nH]c3ccccc23)[C@H](c2ccccc2)[C@@H]2CCCN12`, the GI50 was 2.01 µM in the experiment with SK-MEL-5 melanoma; 6.87 µM with MALME-3M melanoma; 1.98 µM in the experiment with HL-60(TB) leukemia; 3.62 µM in the experiment with OVCAR-8 ovarian; 3.05 µM in the experiment on NCI/ADR-RES ovarian; 2.7 µM in the experiment on OVCAR-5 ovarian. Further, the GI50 in the experiment on M14 melanoma was 3.53 µM; with SK-MEL-28 melanoma it was 3.69 µM; in the experiment with RXF 393 renal, 1.88 µM. Moreover, the TGI in the experiment on SK-MEL-5 melanoma is 5.07 µM; in the experiment with MALME-3M melanoma it was 43.8 µM; in the experiment with HL-60(TB) leukemia, 8.29 µM; in the experiment on OVCAR-8 ovarian it was more than 100 µM; in the experiment with NCI/ADR-RES ovarian, 36.4 µM; in the experiment with OVCAR-5 ovarian, 9.59 µM. The TGI in the experiment on M14 melanoma is 14.5 µM; in the experiment with SK-MEL-28 melanoma, 32.9 µM; in the experiment with RXF 393 renal, 4.34 µM.

In the case of `CN(C)c1ccc(/C=N/NC(N)=S)nc1`, the GI50 was 2.52 µM in the experiment on SK-MEL-5 melanoma; 7.91 µM in the experiment with MALME-3M melanoma; 4.46 µM with HT29 colon; 1.8 µM in the experiment on HL-60(TB) leukemia; 3.24 µM in the experiment with OVCAR-8 ovarian; 4.08 µM in the experiment with NCI/ADR-RES ovarian. In addition, the GI50 was 2.28 µM with M14 melanoma, 17.9 µM with SK-MEL-28 melanoma and 4.16 µM with RXF 393 renal. Further, the TGI is more than 100 µM in the experiment on SK-MEL-5 melanoma; more than 100 µM in the experiment with MALME-3M melanoma; more than 100 µM in the experiment on HT29 colon; 37.9 µM in the experiment with HL-60(TB) leukemia; more than 100 µM in the experiment on OVCAR-8 ovarian; more than 100 µM in the experiment with NCI/ADR-RES ovarian. Besides, the results for the TGI in the experiment on M14 melanoma, in the experiment on SK-MEL-28 melanoma and in the experiment on RXF 393 renal were 5.23 µM, more than 100 µM and more than 100 µM, respectively.

With `CSc1ccc(C2=NN(C(C)=O)C(c3ccc(-c4cc(Cl)c(Cl)cc4Cl)o3)C2)cc1` (stereo not drawn), the GI50 is 12.6 µM in the experiment with SK-MEL-5 melanoma; 19.5 µM in the experiment on MALME-3M melanoma; 12.9 µM in the experiment on HT29 colon; 12 µM with HL-60(TB) leukemia; 16.9 µM in the experiment on OVCAR-8 ovarian; 16.7 µM in the experiment with NCI/ADR-RES ovarian. The results for the GI50 in the experiment with OVCAR-5 ovarian, in the experiment with SK-MEL-28 melanoma and with RXF 393 renal were 14.3 µM, 16.2 µM and 17.6 µM, respectively. The TGI with SK-MEL-5 melanoma is 25.1 µM; with MALME-3M melanoma it was 39.9 µM; with HT29 colon it was 26.7 µM; with HL-60(TB) leukemia it was 30.4 µM; in the experiment on OVCAR-8 ovarian, 36.9 µM; in the experiment on NCI/ADR-RES ovarian, 34.1 µM. In addition, the results for the TGI in the experiment on OVCAR-5 ovarian, with SK-MEL-28 melanoma and in the experiment on RXF 393 renal were 27.4 µM, 29.7 µM and 35.1 µM, respectively.

Turning to `C=C(C)[C@@H]1CC[C@]2(CO)CC[C@]3(C)[C@H](CC[C@@H]4[C@@]5(C)CCCNC(C)(C)[C@@H]5CC[C@]43C)[C@@H]12`, the GI50 in the experiment with SK-MEL-5 melanoma is 1.38 µM; in the experiment on MALME-3M melanoma, 1.5 µM; with OVCAR-8 ovarian it was 1.83 µM; in the experiment with NCI/ADR-RES ovarian, 1.63 µM; with OVCAR-5 ovarian, 1.51 µM; in the experiment on M14 melanoma, 1.58 µM. The GI50 in the experiment on SK-MEL-28 melanoma was 1.62 µM; with RXF 393 renal, 1.68 µM. In addition, the TGI in the experiment with SK-MEL-5 melanoma is 2.7 µM; in the experiment with MALME-3M melanoma, 3.05 µM; in the experiment with OVCAR-8 ovarian, 3.51 µM; in the experiment with NCI/ADR-RES ovarian it was 3.18 µM; with OVCAR-5 ovarian, 2.89 µM; in the experiment on M14 melanoma it was 3.13 µM. In addition, the figures for the TGI with SK-MEL-28 melanoma and in the experiment on RXF 393 renal were 3.16 µM and 3.18 µM, respectively.

As to `CCC(CC)n1cnc2c(-c3cnc(N)cn3)nc(N3CC4CCC(C3)O4)nc21`, the GI50 is 0.138 µM in the experiment with SK-MEL-5 melanoma; 0.0472 µM in the experiment with MALME-3M melanoma; 0.742 µM with HT29 colon; 1.41 µM in the experiment with HL-60(TB) leukemia; 0.769 µM with OVCAR-8 ovarian; 0.79 µM in the experiment with NCI/ADR-RES ovarian. Also, the GI50 was 0.374 µM with OVCAR-5 ovarian, 0.151 µM in the experiment with M14 melanoma and 0.153 µM in the experiment on RXF 393 renal. In addition, the TGI with SK-MEL-5 melanoma was 1.21 µM; in the experiment with MALME-3M melanoma, 0.688 µM; in the experiment on HT29 colon, more than 100 µM; in the experiment on HL-60(TB) leukemia, more than 100 µM; with OVCAR-8 ovarian it was more than 100 µM; in the experiment with NCI/ADR-RES ovarian, more than 33.5 µM. Moreover, the TGI is more than 100 µM in the experiment with OVCAR-5 ovarian, more than 100 µM in the experiment on M14 melanoma and 1.6 µM with RXF 393 renal.

As for `Cc1ccc(CNc2ccc3nc(CCC4CCCCC4)[nH]c3c2)cc1`, the GI50 was 1.69 µM with SK-MEL-5 melanoma; 1.74 µM in the experiment on MALME-3M melanoma; 1.88 µM in the experiment on HT29 colon; 1.98 µM in the experiment on HL-60(TB) leukemia; 3.21 µM in the experiment on OVCAR-8 ovarian; 2.69 µM in the experiment with NCI/ADR-RES ovarian. The GI50 in the experiment with OVCAR-5 ovarian is 2.52 µM; in the experiment on M14 melanoma, 1.91 µM; with RXF 393 renal, 2.06 µM. Further, the TGI with SK-MEL-5 melanoma was 3.09 µM; in the experiment with MALME-3M melanoma it was 4.07 µM; in the experiment on HT29 colon it was 5.19 µM; in the experiment on HL-60(TB) leukemia, 4.62 µM; with OVCAR-8 ovarian, more than 100 µM; with NCI/ADR-RES ovarian it was 9.51 µM. For the same compound, the figures for the TGI in the experiment on OVCAR-5 ovarian, with M14 melanoma and in the experiment with RXF 393 renal were 8.18 µM, 3.9 µM and 5.38 µM, respectively.

With `CCOC(=O)C(=Cc1ccc(C#N)cc1)C(=O)OCC`, the GI50 in the experiment on SK-MEL-5 melanoma is 1.92 µM; with HT29 colon, 1.93 µM; in the experiment with HL-60(TB) leukemia, 1.88 µM; in the experiment on OVCAR-8 ovarian, 3.54 µM; with NCI/ADR-RES ovarian, 3.33 µM; in the experiment with OVCAR-5 ovarian, 2.61 µM. Besides, the results for the GI50 in the experiment with M14 melanoma, with SK-MEL-28 melanoma and with RXF 393 renal were 1.89 µM, 2.35 µM and 1.87 µM, respectively. For the same compound, the TGI with SK-MEL-5 melanoma was found to be 3.67 µM; in the experiment with HT29 colon, 3.77 µM; in the experiment on HL-60(TB) leukemia it was 5.48 µM; in the experiment on OVCAR-8 ovarian, 11.4 µM; in the experiment on NCI/ADR-RES ovarian it was 23.4 µM; in the experiment on OVCAR-5 ovarian it was 11.2 µM. In addition, the TGI with M14 melanoma stood at 4.26 µM; with SK-MEL-28 melanoma, 6.56 µM; in the experiment with RXF 393 renal, 3.36 µM.

The values are drawn from PubChem BioAssay (NCI).
